Literature values as cited in EP1803441A1 (Teva Pharmaceutical Industries Ltd, priority 2005, dated 2007).

How the values were obtained:
[1] = orally administered tablets
[2] = oral administration

increase of the extent of absorption when tablets are taken with food [1]: approximately 35%
part of a single dose excreted in the feces [2]: 25%
SMILES: CC(C)OC(=O)C(C)(C)Oc1ccc(C(=O)c2ccc(Cl)cc2)cc1 [fenofibrate, 2-[4-(4-chlorobenzoyl)phenoxy]-2-methyl-propanoic acid, 1-methylethyl ester]
